Results on 42 compounds are retold here after patent US11969425B2, “Inhibitor of indoleamine-2,3-dioxygenase (IDO)” (InventisBio LLC, priority 2016, dated 2024).

This assay has as its system kynurenine production in HeLa cells. Description: Inhibition of kynurenine production in HeLa cells. Conditions: 48 h. In kind it is cell-based, human. The procedure: The effect of compounds described herein on the inhibition of kynurenine production in HeLa cells (derived from human cervical cancer) was determined. HeLa cells were seeded into a 96-well culture plate at a density of 5×10^3 per well in RPMI1640/phenol red free media (from GIBCO) with 2 mM L-glutamine and 10% fetal bovine serum (FBS, from GIBCO) and grown overnight in a 37° C. incubator with 5% CO2. Twenty-four hours later, human IFN-γ (from GIBCO) (final concentration 50 ng/mL) and test compound solutions (serially diluted to different wells) were added to each well with a final volume of 200 uL per well. Forty-eight hours after incubation with compounds, 140 uL supernatant was taken from each well and was transferred to a new 96-well plate. Ten microliters of 6.1 N trichloroacetic acid were added into each well, mixed and incubated at 50° C. for 30 minutes. The reaction mixture was then centrifuged for 10 minutes at 2500 rpm and 100 uL of the supernatant per well was transferred to another 96 well plate and mixed with 100 uL of 2% (w/v) p-dimethylaminobenzaldehyde in acetic acid. The yellow color derived from kynurenine was measured at 480 nm using a SPECTRAmax i3 reader. Each compound concentration was done in triplicates and compound IC50 value was calculated using nonlinear regression using Graphpad Prism 5.0.
The inhibitory activity of representative compounds described herein, compared with another IDO inhibitor, such as INCB-24360, Controls 1 and 2 are shown in Table 2.

[1] abbreviates: Homo sapiens, HeLa, HeLa cells, human IFN-γ 50 ng/mL, kynurenine read at 480 nm, read-out: IC50.
[2] abbreviates: HeLa cells, human IFN-γ 50 ng/mL, kynurenine read at 480 nm, read-out: IC50.

Read-outs that look alike come from different tables or passages of the source.

For orientation: IC50 means the midpoint of a concentration-inhibition curve. In the case of `CC(C)N(CC1CC1)c1ccc(C2(C(=O)O)CCC2)cc1Nc1ccc(C#N)cc1` [Compound 112], the IC50 under setting [1] stood at 0.2 nM. On the same count and under the same terms, as for `CC(C)CN(c1ccc(C2(C(=O)O)CCC2)cc1Nc1ccc(Cl)cc1)C1CCOCC1` [Compound 57], the figure is 0.2 nM. On the same count and under the same terms, as for `CC(C)CN(CC(C)C)c1ccc(SC(C)(C)C(=O)O)cc1NC(=O)Nc1ccc(F)cc1F` [Compound 37], the figure is 19.9 nM; as for `CCOc1ncc(Nc2cc(C3(C(=O)O)CCC3)ccc2N(CC2CC2)C(C)C)cn1` [Compound 98], 2.8 nM; as for `CCOc1ncc(Nc2cc(C3(C(=O)O)CCC3)cnc2N(CC)C2CCOCC2)cn1` [Compound 124], 11.3 nM. As for `CCC(C(=O)O)c1ccc(N(CC(C)C)C2CCCCC2)c(NC(=O)Nc2cncnc2)c1` (single isomer, unassigned) [Compound 64B], the IC50 under setting [2] was 0.2 nM. The same measure, in the same setting: as for `CC(C)CN(CC(C)(C)O)c1ccc(C2(C(=O)O)CCC2)cc1NC(=O)Nc1ccc(F)cc1F` [Compound 23], the figure is 61.5 nM. Still for that read-out and setting: as for `CCC(C(=O)O)c1ccc(N(CC(C)C)C2CCOCC2)c(Nc2ccc3c(c2)OC(F)(F)O3)c1` (single isomer, unassigned) [Compound 71B], the figure is 0.9 nM. Consider `Cc1cc(NC(=O)Nc2cc(C3(C(=O)O)CCCC3)ccc2N(CC(C)C)C2CCOCC2)on1` [Compound 15], for which, under setting [1], the IC50 amounted to 1.4 nM.

Turning to `CCOc1ncc(Nc2cc(CC(=O)O)ccc2N(CC(C)C)C2CCOCC2)cn1` [Compound 109], the IC50 under setting [1] is more than 316 nM. With `CC(C)CN(c1ccc(C2(C(=O)O)CCC2)cc1Nc1ccc(C#N)cc1)C1CCOCC1` [Compound 72], the IC50 under setting [1] amounted to 0.2 nM. On the same count and under the same terms, the figure for `CC(C)CN(c1ccc(CC(=O)O)cc1Nc1ccc(C#N)cc1)C1CCCCC1` [Compound 99] is 3.9 nM. As for `CC(C)N(CC1CC1)c1ccc(C2(C(=O)O)CCC2)cc1Nc1ccc(Cl)cn1` [Compound 113], the half-maximal inhibitory concentration (IC50) under setting [1] worked out at 0.4 nM. On to `CC(C)CN(CC(C)C)c1ccc(C2(C(=O)O)CCCC2)cc1Nc1ncccn1` [Compound 49], for which the concentration for half-maximal inhibition (IC50) under setting [1] is more than 316 nM.

In turn, `CCOc1ncc(Nc2cc(C3(C(=O)O)CCC3)cnc2N2C3CCC2CC(c2ccc(F)cc2)C3)cn1` (stereo not drawn) [Compound 127] had a half-inhibitory concentration (IC50) (Homo sapiens, HeLa) of 22 nM. Consider `COCCN(c1ccc(SC(C)(C)C(=O)O)cc1NC(=O)Nc1ccc(F)cc1F)C1CCCCC1` [Compound 45], for which, under setting [1], the IC50 is 78 nM. With `CC(C)CN(c1ccc(C2(C(=O)O)CCC2)cc1Nc1ccc(C#N)cc1)C1CCCCC1` [Compound 56], the IC50 under setting [1] came to 0.2 nM. With `CC(C)CN(CC(C)C)c1ncc(C2(C(=O)O)CCC2)cc1NC(=O)Nc1ccc(F)cc1F` [Compound 83], the half-maximal inhibitory concentration (IC50) under setting [1] was 5.4 nM. Still for that read-out and setting: as for `CCOc1ncc(Nc2cc(C(C)(C)C(=O)O)ccc2N(CC2CC2)C(C)C)cn1` [Compound 114], the figure is 25 nM; as for `CC(C)CN(CC(C)C)c1ccc(C2(C(=O)O)CC2)cc1NC(=O)Nc1ccc(F)cc1F` [Compound 7, 1-[4-[bis(2-methylpropyl)amino]-3-[[(2,4-difluorophenyl)carbamoyl]amino]phenyl]cyclopropane-1-carboxylic acid], 6.3 nM. Still for that read-out and setting: the figure for `CC(C)CN(c1ccc(SC(C)(C)C(=O)O)cc1NC(=O)Nc1ccc(F)cc1F)C1CCOCC1` [Compound 43] is 134 nM; for `CC(C)CN(c1ccc(SC(C)(C)C(=O)O)cc1NC(=O)Nc1ccc(F)cc1F)C1CCCCC1` [Compound 41] it is 6.4 nM. Consider `CC(C)N(CC1CC1)c1ccc(C2(C(=O)O)CCC2)cc1Nc1ccc(Cl)cc1` [Compound 95], for which the concentration for half-maximal inhibition (IC50) under setting [1] amounted to 0.4 nM. As to `CC(C)CN(c1ccc(C2(C(=O)O)CCC2)cc1Nc1ccc(C#N)cn1)C1CCCCC1` [Compound 94], under setting [1], the IC50 is 0.2 nM. On the same count and under the same terms, the figure for `CC(C)CN(CC(C)C)c1ccc(C2(c3nnn[nH]3)CCCC2)cc1NC(=O)Nc1ccc(F)cc1F` [Compound 10, 3-[2-[bis(2-methylpropyl)amino]-5-[1-(1H-1,2,3,4-tetrazol-5-yl)cyclopentyl]phenyl]-1-(2,4-difluorophenyl)urea] is 0.9 nM; for `CCC(C(=O)O)c1ccc(N(CC(C)C)C2CCOCC2)c(Nc2ccc(C#N)cc2)c1` (stereo not drawn) [Compound 70A] it is 0.4 nM; for `Cc1cc(NC(=O)Nc2cc(C3(C(=O)O)CCC3)ccc2N(CC(C)C)C2CCOCC2)on1` [Compound 27] it is 5.7 nM. Same read-out and setting: the figure for `CC(C)CN(c1ccc(C2(C(=O)O)CCC2)cc1Nc1cc(Cl)cc(Cl)c1)C1CCOCC1` [Compound 103] is 20 nM.

On to `CC(C)CN(c1ccc(C2(C(=O)O)CCC2)cc1Nc1cncnc1)C1CCOCC1` [Compound 74], for which the IC50 under setting [1] is 1.9 nM. Still for that read-out and setting: as for `CC(C)CN(c1ccc(C2(C(=O)O)CCCC2)cc1NC(=O)Nc1ccc(F)cc1F)C1CCCCC1` [Compound 11], the figure is 0.9 nM; as for `CC(C)CN(c1ccc(C2(C(=O)O)CCC2)cc1Nc1ccc(Cl)cc1F)C1CCOCC1` [Compound 88], 1.7 nM.

On to `CC(C)CN(CC(C)C)c1ccc(OCC(=O)O)cc1NC(=O)Nc1ccc(F)cc1F` [Compound 31], for which the IC50 under setting [1] came to 11.8 nM. On the same count and under the same terms, the figure for `CC(C)CN(CC(C)C)c1ccc(C2(c3nnn[nH]3)CCC2)cc1NC(=O)Nc1ccc(F)cc1F` [Compound 19] is 1 nM; for `CCC(C(=O)O)c1ccc(N(CC(C)C)C2CCCCC2)c(NC(=O)Nc2cc(C)no2)c1` (stereo not drawn) [Compound 63A] it is 2.5 nM. Regarding `CCC(C(=O)O)c1ccc(N(CC(C)C)C2CCCCC2)c(NC(=O)Nc2ccc(F)cc2F)c1` (single isomer, unassigned) [Compound 62B], under setting [2], the IC50 was 0.2 nM. Regarding `CCC(C(=O)O)c1ccc(N(CC(C)C)CC(C)C)c(Nc2ccc(S(C)(=O)=O)cc2)c1` (single isomer, unassigned) [Compound 60B], the IC50 under setting [2] stood at 2.8 nM. On to `CCOc1ncc(Nc2cc(C3(C(=O)O)CCC3)ccc2N(CC(C)C)CC(C)C)cn1` [Compound 97], for which, under setting [1], the IC50 amounted to 2.4 nM. For the compound `CCC(C(=O)O)c1ccc(N(CC(C)C)CC(C)C)c(Nc2ccc(C#N)cc2)c1` (stereo not drawn) [Compound 61A], under setting [1], the IC50 worked out at 0.3 nM. The same measure, in the same setting: the figure for `CC(C)CN(c1ccc(C2(C(=O)O)CCC2)cc1Nc1ccc(S(C)(=O)=O)cc1)C1CCOCC1` [Compound 77] is 3 nM. Take `CC(C)CN(CC(C)C)c1ccc(C2(C(=O)O)CCOCC2)cc1NC(=O)Nc1ccc(F)cc1F` [Compound 8, 4-[4-[bis(2-methylpropyl)amino]-3-[[(2,4-difluorophenyl)carbamoyl]amino]phenyl]oxane-4-carboxylic acid]: the IC50 under setting [1] stood at 47 nM. Still for that read-out and setting: the figure for `CC(C)CN(CC(C)C)c1ccc(SCC(=O)O)cc1NC(=O)Nc1ccc(F)cc1F` [Compound 36] is 2.8 nM. Same read-out and setting: as for `CC(C)CN(c1ccc(C2(C(=O)O)CCC2)cc1Nc1cnn(C)c1)C1CCOCC1` [Compound 87], the figure is 6.5 nM.
